Data from patent US10316017B2, “COT modulators and methods of use thereof” (Gilead Sciences, Inc., priority 2015, dated 2019).

Key:
[1] = test system: TNFα production in LPS-stimulated human monocytes; assay: Cot Monocyte TNFα Cell Based Assay; details: Homo sapiens, Monocyte, TNFα in LPS-stimulated human monocytes; read-out: EC50 TNF
Outline: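 TR-FRET read-out of total secreted TNFα, normalized as % control (unstimulated = 0%, LPS-stimulated = 100%). Cells (5,000/well) were exposed to compound 1 h at 37 °C, then to 50 pg/ml LPS for a further 4 h.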

[2] = target: T1, human Cot catalytic domain (30-397 amino acids) (Homo sapiens, UniProt P41279); assay: High Throughput Cot Biochemical Assay (KinEASE TR-FRET); details: Cot KinEASE TR-FRET (HTRF) biochemical assay, 400 μM ATP; read-out: IC50 HTRF
T1 construct: Purified recombinant human Cot catalytic domain (30-397 amino acids) was purchased from Cama Biosciences; purchased Cama Biosciences (so in the source)
Outline: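 TR-FRET readout: Eu-labeled phospho-specific antibody binds XL665-tagged STK3 peptide after phosphorylation by Cot (aa 30-397, 5 nM). Conditions: 400 μM ATP, 1 μM peptide, MOPS pH 7.0 buffer with MgOAc, DTT, BSA, NP-40, glycerol; 0.1% DMSO.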

T1 sequence (P41279 30-397): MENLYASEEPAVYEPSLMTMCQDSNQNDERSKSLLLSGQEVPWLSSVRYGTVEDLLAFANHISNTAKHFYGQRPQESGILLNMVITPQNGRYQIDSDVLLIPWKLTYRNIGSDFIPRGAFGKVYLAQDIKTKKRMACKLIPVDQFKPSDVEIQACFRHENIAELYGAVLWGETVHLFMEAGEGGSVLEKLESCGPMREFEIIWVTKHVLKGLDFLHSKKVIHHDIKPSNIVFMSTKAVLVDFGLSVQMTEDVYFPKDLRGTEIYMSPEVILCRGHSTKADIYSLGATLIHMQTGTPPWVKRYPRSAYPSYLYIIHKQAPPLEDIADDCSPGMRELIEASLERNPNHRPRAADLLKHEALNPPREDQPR

| Structure (SMILES) | EC50 [1] | IC50 [2] |
| --- | --- | --- |
| [2H][C@](Nc1cc(Cl)c2ncc(C#N)c(Nc3c(F)ccc(Cl)c3F)c2c1)(c1cccc(C#N)c1)c1cn(C2CC2)nn1 [Example 275, (S)-8-chloro-4-((3-chloro-2,6-difluorophenyl)amino)-6-(((3-cyanophenyl)(1-cyclopropyl-1H-1,2,3-triazol-4-yl)methyl-d)amino)quinoline-3-carbonitrile] | 246 nM | 23 nM |
| [2H][C@](Nc1cc(Cl)c2ncc(C#N)c(NCC3(C)CCC3)c2c1)(c1cccc(C#N)c1)c1cn(C2CC2)nn1 [Example 276, (S)-8-chloro-6-(((3-cyanophenyl)(1-cyclopropyl-1H-1,2,3-triazol-4-yl)methyl-d)amino)-4-(((1-methylcyclobutyl)methyl)amino) quinoline-3-carbonitrile] | 166 nM | 3 nM |
| [2H][C@@](Nc1cc(Cl)c2ncc(C#N)c(NC3CC4CCC3CC4)c2c1)(c1ccc(F)cc1)c1cn(C2CC2)nn1 (stereo partly drawn) [Example 277, 4-(((1s,4s)-bicyclo[2.2.2]octan-2-yl)amino)-8-chloro-6-(((S)-(1-cyclopropyl-1H-1,2,3-triazol-4-yl)(4-fluorophenyl)methyl-d)amino)quinoline-3-carbonitrile] | 858 nM | 32 nM |
| [2H][C@](Nc1cc(Cl)c2ncc(C#N)c(N)c2c1)(c1ccc(F)cc1)c1cn(C2CC2)nn1 [Example 279, 4-amino-8-chloro-6-(((S)-(1-cyclopropyl-1H-1,2,3-triazol-4-yl)(4-fluorophenyl)methyl-d)amino)quinoline-3-carbonitrile] | 8200 nM | 3050 nM |
| [2H][C@](Nc1cc(Cl)c2ncc(C#N)c(NOC(C)(C)C)c2c1)(c1ccc(F)cc1)c1cn(C2CC2)nn1 [Example 280, (S)-4-(tert-butoxyamino)-8-chloro-6-(((1-cyclopropyl-1H-1,2,3-triazol-4-yl)(4-fluorophenyl)methyl-d)amino)quinoline-3-carbonitrile] | 1470 nM | 228 nM |
| [2H][C@](Nc1cc(Cl)c2ncc(C#N)c(N[C@H](CC)c3cccc(C)c3)c2c1)(c1ccc(F)cc1)c1cn(C2CC2)nn1 [Example 281, 8-chloro-6-(((S)-(1-cyclopropyl-1H-1,2,3-triazol-4-yl)(4-fluorophenyl)methyl-d)amino)-4-(((R)-1-(m-tolyl)propyl)amino)quinoline-3-carbonitrile] | 1040 nM | 68 nM |
| [2H][C@](Nc1cc(Cl)c2ncc(C#N)c(NC(C)(C)CC)c2c1)(c1ccc(F)cc1)c1cn(C2CC2)nn1 [Example 282, (S)-8-chloro-6-(((1-cyclopropyl-1H-1,2,3-triazol-4-yl)(4-fluorophenyl)methyl-d)amino)-4-(tert-pentylamino) quinoline-3-carbonitrile] | 525 nM | 39 nM |
| [2H][C@](Nc1cc(Cl)c2ncc(C#N)c(NC(C)(C)C)c2c1)(c1ccc(F)cc1)c1cn(C2CC2)nn1 [Example 283, (S)-4-(tert-butylamino)-8-chloro-6-(((1-cyclopropyl-1H-1,2,3-triazol-4-yl)(4-fluorophenyl)methyl-d)amino)quinoline-3-carbonitrile] | 764 nM | 90 nM |
| [2H][C@](Nc1cc(C#N)c2ncc(C#N)c(NCC(C)(C)C)c2c1)(c1ccc(F)cc1)c1cn(C2CC2)nn1 [Example 284, (S)-6-(((1-cyclopropyl-1H-1,2,3-triazol-4-yl)(4-fluorophenyl)methyl-d)amino)-4-(neopentylamino) quinoline-3,8-dicarbonitrile] | 52 nM | 4 nM |
| [2H][C@](Nc1cc(C#N)c2ncc(C#N)c(N[C@H](CC)c3ccccc3)c2c1)(c1ccc(F)cc1)c1cn(C2CC2)nn1 [Example 285, 6-(((S)-(1-cyclopropyl-1H-1,2,3-triazol-4-yl)(4-fluorophenyl)methyl-d)amino)-4-(((R)-1-phenylpropyl)amino) quinoline-3,8-dicarbonitrile] | 45 nM | 3 nM |
| [2H][C@](Nc1cc(Br)c2ncc(C#N)c(NCC(C)(C)C)c2c1)(c1ccc(F)cc1)c1cn(C2CC2)nn1 [Example 287, (S)-8-bromo-6-(((1-cyclopropyl-1H-1,2,3-triazol-4-yl)(4-fluorophenyl)methyl-d)amino)-4-(neopentylamino)quinoline-3-carbonitrile] | 140 nM | 10 nM |
| [2H][C@](Nc1cc(Br)c2ncc(C#N)c(N[C@H](CC)c3ccccc3)c2c1)(c1ccc(F)cc1)c1cn(C2CC2)nn1 [Example 288, 8-bromo-6-(((S)-(1-cyclopropyl-1H-1,2,3-triazol-4-yl)(4-fluorophenyl)methyl-d)amino)-4-(((R)-1-phenylpropyl)amino)quinoline-3-carbonitrile] | 130 nM | 6 nM |
| [2H][C@@](Nc1cc(Cl)c2ncc(C#N)c(NCC(C)(C)C)c2c1)(c1cn(C2CC2)nn1)c1cccc(C#N)c1Cl [Example 289, (S)-8-chloro-6-(((2-chloro-3-cyanophenyl)(1-cyclopropyl-1H-1,2,3-triazol-4-yl)methyl-d)amino)-4-(neopentylamino) quinoline-3-carbonitrile] | 116 nM | 4 nM |
| [2H][C@](Nc1cc(F)c2ncc(C#N)c(N[C@H](CC)c3ccccc3)c2c1)(c1ccc(F)cc1)c1cn(C2CC2)nn1 [Example 291, 6-(((S)-(1-cyclopropyl-1H-1,2,3-triazol-4-yl)(4-fluorophenyl)methyl-d)amino)-8-fluoro-4-(((R)-1-phenylpropyl)amino) quinoline-3-carbonitrile] | 173 nM | 8 nM |
| [2H][C@@](Nc1cc(Cl)c2ncc(C#N)c(N[C@H](CC)c3ccccc3)c2c1)(c1cn(C2CC2)nn1)c1cccc(C#N)c1Cl [Example 292, 8-chloro-6-(((S)-(2-chloro-3-cyanophenyl)(1-cyclopropyl-1H-1,2,3-triazol-4-yl)methyl-d)amino)-4-(((R)-1-phenylpropyl)amino)quinoline-3-carbonitrile] | 237 nM | 13 nM |
| N#Cc1cnc2c(Cl)cc(N[C@H](c3cn(C4CC4)nn3)c3cccc(Cl)c3Cl)cc2c1Nc1cnc(F)c(F)c1 [Example 293, (S)-8-chloro-6-(((1-cyclopropyl-1H-1,2,3-triazol-4-yl)(2,3-dichlorophenyl)methyl)amino)-4-((5,6-difluoropyridin-3-yl)amino)quinoline-3-carbonitrile] | 469 nM | 24 nM |
| CC[C@@H](Nc1c(C#N)cnc2c(Cl)cc(N[C@H](c3cn(C4CC4)nn3)c3cccc(Cl)c3Cl)cc12)c1ccccc1 [Example 294, 8-chloro-6-(((S)-(1-cyclopropyl-1H-1,2,3-triazol-4-yl)(2,3-dichlorophenyl)methyl)amino)-4-(((R)-1-phenylpropyl)amino)quinoline-3-carbonitrile] | 1880 nM | 92 nM |
| [2H][C@](Nc1cc(Cl)c2ncc(C#N)c(N[C@@H](CC#N)c3ccccc3)c2c1)(c1cccc(C#N)c1)c1cn(C2CC2)nn1 [Example 295, 8-chloro-4-(((S)-2-cyano-1-phenylethyl)amino)-6-(((S)-(3-cyanophenyl)(1-cyclopropyl-1H-1,2,3-triazol-4-yl)methyl-d)amino)quinoline-3-carbonitrile] | > 10000 nM | 389 nM |
| [2H][C@](Nc1cc(Cl)c2ncc(C#N)c(N[C@H](CC#N)c3ccccc3)c2c1)(c1cccc(C#N)c1)c1cn(C2CC2)nn1 [Example 296, 8-chloro-4-(((R)-2-cyano-1-phenylethyl)amino)-6-(((S)-(3-cyanophenyl)(1-cyclopropyl-1H-1,2,3-triazol-4-yl)methyl-d)amino)quinoline-3-carbonitrile] | 44 nM | 2 nM |
| CC[C@@H](Nc1c(C#N)cnc2c(Cl)cc(N[C@@H](c3ccc(F)cc3)c3c[nH]nn3)c(F)c12)c1ccccc1 [Example 297] | 4250 nM | > 10000 nM |
| [2H][C@](Nc1cc(Cl)c2ncc(C#N)c(N[C@H](CC)c3ccccc3)c2c1)(c1ccccc1Cl)c1nn[nH]c1C [Example 298, 8-chloro-6-(((S)-(2-chlorophenyl)(5-methyl-1H-1,2,3-triazol-4-yl)methyl-d)amino)-4-(((R)-1-phenylpropyl)amino)quinoline-3-carbonitrile] | 1470 nM | 121 nM |
| [2H][C@](Nc1cc(Cl)c2ncc(C#N)c(NCC(C)(C)C#N)c2c1)(c1ccc(F)cc1)c1cn(C2CC2)nn1 [Example 299, (S)-8-chloro-4-((2-cyano-2-methylpropyl)amino)-6-(((1-cyclopropyl-1H-1,2,3-triazol-4-yl)(4-fluorophenyl)methyl-d)amino)quinoline-3-carbonitrile] | 309 nM | 12 nM |
| [2H][C@](Nc1cc(Cl)c2ncc(C#N)c(N[C@H](CC)c3cccc(F)c3)c2c1)(c1ccc(F)cc1)c1cn(C2CC2)nn1 [Example 300, 8-chloro-6-(((S)-(1-cyclopropyl-1H-1,2,3-triazol-4-yl)(4-fluorophenyl)methyl-d)amino)-4-(((R)-1-(3-fluorophenyl)propyl)amino) quinoline-3-carbonitrile] | 126 nM | 4 nM |
| [2H][C@](Nc1cc(Cl)c2ncc(C#N)c(NNC3CCCCC3)c2c1)(c1ccc(F)cc1)c1cn(C2CC2)nn1 [Example 301, (S)-8-chloro-4-(2-cyclohexylhydrazinyl)-6-(((1-cyclopropyl-1H-1,2,3-triazol-4-yl)(4-fluorophenyl)methyl-d)amino)quinoline-3-carbonitrile] | 1240 nM | > 10000 nM |
